Earlier results, collected in Sander's compilation of Henry's law constants (doi:10.1016/0045-6535(88)90142-7).

test: Henry solubility constant Hcp at 298.15 K (mol/(m3 Pa)); conditions: reference: Ryan et al. (1988); cited value

In order of rising “Henry solubility constant Hcp” value:
1. FC(F)(Cl)Cl [dichlorodifluoromethane]  6.4e-06
2. CCBr [bromoethane]  9.2e-05
3. ClC1=C(Cl)C(Cl)(Cl)C(Cl)=C1Cl [hexachlorocyclopentadiene]  0.00027
4. CC(Cl)(Cl)Cl [1,1,1-trichloroethane]  0.00031
5. ClC(Cl)(Cl)Cl [tetrachloromethane]  0.00045
6. ClC(Cl)=C(Cl)Cl [tetrachloroethene]  0.00063
7. C=CCl [chloroethene]  0.00065
8. CCCl [chloroethane]  0.00066
9. Clc1ccc(C(c2ccc(Cl)cc2)C(Cl)Cl)cc1 [1,1-dichloro-2,2-bis-(4-chlorophenyl)-ethane]  0.00081
10. c1ccc2c(c1)cc1ccc3cccc4ccc2c1c34 [benzo[a]pyrene]  0.00082
11. ClC(Cl)=C(Cl)C(Cl)=C(Cl)Cl [hexachlorobutadiene]  0.00094
12. ClC(Cl)(Cl)C(Cl)(Cl)Cl [hexachloroethane]  0.00098
13. ClC=C(Cl)Cl [trichloroethene]  0.0011
14. ClCC(Cl)Cl [1,1,2-trichloroethane]  0.0013
15. Cc1ccccc1 [methylbenzene]  0.0014
16. CCc1ccccc1 [ethylbenzene]  0.0016
17. c1ccccc1 [benzene]  0.0018
18. C=C(Cl)Cl [1,1-dichloroethene]  0.0022
19. Clc1ccccc1 [chlorobenzene]  0.0027
20. CC(Cl)CCl (stereo not drawn) [1,2-dichloropropane]  0.0034
21. Clc1cccc(Cl)c1 [1,3-dichlorobenzene]  0.0037
22. Clc1ccc(Cl)cc1 [1,4-dichlorobenzene]  0.0041
23. c1ccc2c(c1)ccc1c3ccccc3ccc21 [chrysene]  0.0046
24. ClCCl [dichloromethane]  0.0047
25. ClCOCCl [bis-(chloromethyl) ether]  0.0047
26. ClC1=C(Cl)C2(Cl)C3C(Cl)C=CC3C1(Cl)C2(Cl)Cl (stereo not drawn) [heptachlor]  0.0065
27. ClC=CCCl [1,3-dichloropropene]  0.0081
28. CC(CCl)OC(C)CCl (stereo not drawn) [bis-(2-chloroisopropyl) ether]  0.0086
29. BrC(Br)Br [tribromomethane]  0.017
30. c1ccc2ccccc2c1 [naphthalene]  0.02
31. ClC(Cl)C(Cl)Cl [1,1,2,2-tetrachloroethane]  0.025
32. Clc1ccc2ccccc2c1 [2-chloronaphthalene]  0.031
33. c1ccc2cc3ccccc3cc2c1 [anthracene]  0.037
34. c1cc2c3c(cccc3c1)CC2 [acenaphthene]  0.04
35. C1=Cc2cccc3cccc1c23 [acenaphthylene]  0.084
36. c1ccc2c(c1)Cc1ccccc1-2 [2,3-benzindene]  0.084
37. ClC1=C(Cl)[C@]2(Cl)C3C(Cl)C(Cl)CC3[C@@]1(Cl)C2(Cl)Cl (stereo partly drawn) [chlordane]  0.1
38. C=CC#N [2-propenenitrile]  0.11
39. C=CC=O [propenal]  0.14
40. Clc1ccc(C(c2ccc(Cl)cc2)C(Cl)(Cl)Cl)cc1 [1,1,1-trichloro-2,2-bis-(4-chlorophenyl)-ethane]  0.2
41. c1ccc2c(c1)ccc1ccccc12 [phenanthrene]  0.25
42. ClC(Cl)=C(c1ccc(Cl)cc1)c1ccc(Cl)cc1 [1,1-dichloro-2,2-bis-(4-chlorophenyl)-ethene]  0.45
43. Cc1ccc(O)c(C)c1 [1-hydroxy-2,4-dimethylbenzene]  0.54
44. ClC1C(Cl)C(Cl)C(Cl)C(Cl)C1Cl (stereo not drawn) [β-1,2,3,4,5,6-hexachlorocyclohexane]  0.67
45. O=[N+]([O-])c1ccccc1 [nitrobenzene]  0.75
46. ClC1=C(Cl)[C@]2(Cl)[C@H]3[C@H]([C@@H]4C=C[C@H]3C4)[C@@]1(Cl)C2(Cl)Cl [aldrin]  0.82
47. c1ccc2c(c1)-c1cccc3cccc-2c13 [benzo[jk]fluorene]  1
48. O=[N+]([O-])c1ccccc1O [2-nitrophenol]  1.3
49. ClC1=C(Cl)[C@]2(Cl)[C@@H]3[C@@H]4C[C@@H]([C@H]5O[C@@H]45)[C@@H]3[C@@]1(Cl)C2(Cl)Cl [dieldrin]  1.3
50. O=[N+]([O-])c1ccc(O)cc1 [4-nitrophenol]  1.6
51. Oc1ccc(Cl)cc1Cl [2,4-dichlorophenol]  1.8
52. Oc1ccccc1Cl [2-hydroxychlorobenzene]  2.1
53. Cc1cc(O)ccc1Cl [4-chloro-3-methylphenol]  4
54. ClCCOCCCl [1,5-dichloro-3-oxapentane]  8.6
55. CCCCOC(=O)c1ccccc1C(=O)OCc1ccccc1 [butyl benzyl phthalate]  9.6
56. ClC1=C(Cl)C2(Cl)C3C4OC4C(Cl)C3C1(Cl)C2(Cl)Cl (stereo not drawn) [heptachlorepoxide]  13
57. ClC1=C(Cl)[C@]2(Cl)[C@@H]3[C@H]4C[C@H]([C@@H]5O[C@H]45)[C@@H]3[C@@]1(Cl)C2(Cl)Cl [endrin]  24
58. CCCCC(CC)COC(=O)c1ccccc1C(=O)OCC(CC)CCCC (stereo not drawn) [bis(2-ethylhexyl)-phthalate]  34
59. CCCCCCCCOC(=O)c1ccccc1C(=O)OCCCCCCCC [dioctyl phthalate]  34
60. CCCCOC(=O)c1ccccc1C(=O)OCCCC [dibutyl phthalate]  34
61. ClCCOCOCCCl [bis-(2-chloroethoxy)-methane]  37
62. COC(=O)c1ccccc1C(=O)OC [dimethyl phthalate]  50
63. O=[N+]([O-])c1ccc(O)c([N+](=O)[O-])c1 [2,4-dinitrophenol]  15000
